We go through 30 molecules from PubChem BioAssay (NCI).

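Five compound concentrations were applied to cells in 96-well plates for 48 hours; endpoints were derived by simple linear interpolation of the resulting dose-response curve. GI50 = concentration required for 50% inhibition of growth. The concentration for full growth arrest is given as TGI.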

What all share (assay): growth of human tumour cells (NCI), 48 h
Test [1] concerns ACHN renal.
Test [2] relates to NCI-H460 lung.
Test [3] concerns HOP-92 NSCLC.
Test [4] deals with OVCAR-4 ovarian.
In test [5] the test system is SF-268 CNS.
The test system of test [6] is SK-MEL-28 melanoma.
Test [7] has as its system NCI-H522 lung.
The subject of test [8] is MOLT-4 leukemia.
The subject of test [9] is U251 CNS.

Turning to `O=C(c1cc(Cl)cc(Cl)c1)N(Cc1cccnc1)C(=S)N(Cc1cccnc1)C(=O)c1cc(Cl)cc(Cl)c1`, the TGI in test [1] is 47.3 µM; in [2], more than 100 µM; in [3], more than 100 µM; in test [4], 89.6 µM; in [5], more than 100 µM; in test [6], more than 100 µM. The TGI in [7] was 49 µM; in [8] it was more than 100 µM; in [9], 61.3 µM.
For the molecule `CC(C)C1CC(CO)(CNc2nc(N)nc(Cl)c2/C=N\O)C1` (stereo unspecified), the TGI is 35 µM in test [1]; 3.14 µM in test [2]; 35.2 µM in test [3]; 28.3 µM in test [4]; more than 79.5 µM in [5]; 26.1 µM in test [6]. For the same molecule, the TGI in [7] stood at 22.4 µM; in test [8], 63 µM; in test [9], 39.6 µM.
As for `OCC1C2CCC3(OCCO3)C12` (stereo unspecified), the TGI in test [1], in test [2], in test [3], in test [4], in test [5] and in test [6] was more than 100 µM each time. Further, the TGI in test [7], in [8] and in test [9] was more than 100 µM in each case.
Regarding `COC(=O)[C@H](C)NC(=O)C1(CNC(=O)[C@H](C)NC(=O)OC(C)(C)C)Cc2ccccc2-c2ccccc2C1`, the TGI in test [1] was more than 57.7 µM; in test [2], 42.9 µM; in test [3], 21.2 µM; in [4] it was more than 63.5 µM; in test [5], 52.5 µM; in [6] it was more than 70.6 µM. Further, the TGI in test [7] amounted to 20.8 µM; in test [8] it was 37.6 µM; in [9] it was 36.5 µM.
On to `COc1ccc(C(=O)N2CCN(c3ccc4c(c3)OCC(=O)N4)CC2)cc1OC`, for which the TGI in [1], in test [2], in test [3], in [4], in [5] and in test [6] was more than 100 µM each time. The TGI in [7], in [8] and in test [9] was more than 100 µM each time.
`OCC(O)C(O)C(O)C(O)CNCCO/N=C1/C(c2c(O)[nH]c3ccccc23)=Nc2ccccc21` (stereo unspecified): the TGI in [1] was more than 50 µM; in test [2], more than 50 µM; in [3], 26.9 µM; in test [4] it was more than 50 µM; in [5] it was 28 µM; in [6], 20.7 µM. Besides, the TGI in test [7] was determined as 33 µM; in [8], 36.3 µM; in [9] it was 39.8 µM.
Turning to `CCCCCCCCCC(=O)NCCc1c[nH]c2ccc(OC)cc12`, the TGI was 30.6 µM in test [1]; 50.1 µM in [2]; 31.3 µM in [3]; more than 100 µM in [4]; 34.2 µM in [5]; 33.1 µM in [6]. Further, the TGI is 32.1 µM in test [7], more than 100 µM in test [8] and 31.2 µM in [9].
For `CCCCCCc1cc2cc(C(=O)NCc3ccccc3)c(=N)oc2cc1O`, the TGI in test [1], in test [2], in test [3], in [4], in test [5] and in test [6] was more than 100 µM throughout. For the same molecule, the TGI in test [7], in test [8] and in [9] was more than 100 µM in each case.
For the molecule `O=C1C=CC(=O)c2c(O)c(NCCO)c(Cl)c(O)c21`, the TGI in test [1] is more than 10 µM; in test [2], 8.68 µM; in test [3] it was more than 10 µM; in [4], 1.49 µM; in [5] it was more than 10 µM; in [6] it was 3.65 µM. For the same molecule, the TGI in [7], in [8] and in [9] was more than 10 µM each time.
Take `O=C(CCc1ccc(O)c(O)c1)NCCc1ccccc1`: the TGI in [1] is more than 100 µM; in [2], more than 100 µM; in test [3], more than 100 µM; in test [4], more than 54.2 µM; in test [5] it was more than 100 µM; in test [6], more than 100 µM. The TGI is 43.4 µM in [7], more than 100 µM in [8] and more than 100 µM in test [9].
Regarding `CC1(C)CCCC2CC2CCC(C)(C)C1=O` (stereo unspecified), the TGI in test [1], in test [2], in [3], in test [4], in test [5] and in test [6] was more than 100 µM in each case. Besides, the TGI was more than 100 µM in test [7], 83.1 µM in test [8] and 37.3 µM in test [9].
On to `CC1=NN(c2cccc(Cl)c2)C2(C1=Cc1cccs1)C(Cl)C(=O)N2c1nc2ccccc2s1` (stereo unspecified), for which the TGI in [1] is 50.6 µM; in [2] it was 45.4 µM; in test [3], 52.7 µM; in [4], more than 100 µM; in test [5], 47.9 µM; in [6] it was more than 100 µM. Moreover, the TGI in test [7] was determined as 38.2 µM; in test [8], 57.1 µM; in [9] it was 30.7 µM.
Regarding `C/C(=N\Nc1nc2ccccc2o1)c1ncccn1`, the TGI in test [1] was 11.3 µM; in [2], 14 µM; in test [3] it was 16.6 µM; in test [4], 10.2 µM; in [5], more than 72.2 µM; in [6] it was 28.6 µM. In addition, the TGI in [7] is 22.3 µM; in [8], 0.0282 µM; in test [9] it was 14.8 µM.
On to `O=C(/C=C\c1ccsc1)c1ccccc1`, for which the TGI came to 21.1 µM in [1]; 25.2 µM in test [2]; 41.4 µM in [3]; 16.4 µM in test [4]; 21.8 µM in test [5]; 24.9 µM in [6]. Besides, the TGI in test [7] is 4.34 µM; in test [8], more than 100 µM; in test [9], 15.3 µM.
For `Cc1nn(C(=O)c2ccc(Cl)cc2)c2c1C(c1ccccc1O)SC(N)=N2` (stereo unspecified), the TGI in [1], in [2], in test [3], in test [4], in test [5] and in [6] was more than 10 µM throughout. In addition, the TGI in test [7], in test [8] and in [9] was more than 10 µM in each case.
In the case of `Clc1cc2nc(C3CCCCO3)[nH]c2cc1Cl` (stereo unspecified), the TGI in [1], in test [2], in test [3], in [4], in test [5] and in [6] was more than 100 µM in each case. The TGI is 18.5 µM in test [7], more than 100 µM in test [8] and more than 96.7 µM in test [9].
`O=[N+]([O-])c1cnc(N(CCO)CCO)s1`: the TGI in test [1], in [2], in [3], in test [4], in [5] and in [6] was more than 100 µM in each case. Moreover, the TGI in [7], in [8] and in [9] was more than 100 µM in each case.
Regarding `C[C@@H](Oc1ccc(Oc2cnc3ccc(Cl)cc3n2)cc1)C(=O)O`, the TGI in [1], in [2], in [3], in test [4], in test [5] and in test [6] was more than 100 µM each time. Further, the TGI in test [7], in [8] and in [9] was more than 100 µM each time. The GI50 in test [8] was more than 23.7 µM.
For the molecule `Brc1c2c(c(Br)c3nsnc13)N=S=N2`, the TGI in test [1] was 72.2 µM; in test [2] it was more than 69.3 µM; in [3], 44.8 µM; in test [4] it was more than 55.7 µM; in test [5], 75.4 µM; in [6], more than 70.7 µM. Besides, the TGI is more than 57.5 µM in test [7], 68.9 µM in test [8] and 46.7 µM in test [9].
For `Cc1occc1C(=S)Nc1ccc(Cl)c(C(=O)OCC(C)C)c1`, the TGI in test [1] came to 43.2 µM; in test [2] it was 44.9 µM; in test [3] it was 34.1 µM; in [4], 39.2 µM; in [5] it was 42.5 µM; in test [6], 32.3 µM. Moreover, the TGI in [7] worked out at 29.2 µM; in [8], 44.8 µM; in [9] it was 35.9 µM.
Regarding `N#Cc1sc2c(c1OC(=O)c1ccc(Cl)cc1)c(=O)n(-c1ccccc1)c(=S)n2-c1ccccc1`, the TGI in [1] was 86.8 µM; in test [2], 33.3 µM; in test [3], 66.7 µM; in test [4], 76.7 µM; in test [5] it was 97.7 µM; in [6], 47.2 µM. For the same molecule, the TGI in [7] was determined as 5.29 µM; in [8], 68.7 µM; in test [9], 38.6 µM.
In the case of `COC(=O)CN=C1NC(=S)N(Cc2ccc(OC)cc2)C12CCCC2`, the TGI in [1], in test [2], in test [3], in [4], in [5] and in test [6] was more than 100 µM throughout. Besides, the TGI in test [7], in [8] and in test [9] was more than 100 µM each time.
Consider `COc1ccc(C2CC(c3ccc(NS(=O)(=O)c4cc([N+](=O)[O-])ccc4C)cc3)=NN2S(=O)(=O)c2cc([N+](=O)[O-])ccc2C)cc1` (stereo unspecified), for which the TGI was more than 100 µM in test [1]; more than 100 µM in [2]; more than 100 µM in test [3]; more than 100 µM in [4]; 79.9 µM in test [5]; more than 100 µM in test [6]. Also, the TGI in [7] is 79.4 µM; in test [8] it was more than 100 µM; in test [9], more than 100 µM.
For the molecule `Cc1ccc(NC(=O)CC(=O)N2N=C(N3CCCCC3)CC2c2ccccc2)cc1` (stereo unspecified), the TGI in test [1], in [2], in test [3], in test [4], in test [5] and in [6] was more than 100 µM in each case. Besides, the TGI in [7], in [8] and in [9] was more than 100 µM throughout.
As to `CC(C)(C)C(O)CC(O)(C(F)(F)F)C(F)(F)F` (stereo unspecified), the TGI in test [1], in [2], in test [3], in test [4], in test [5] and in test [6] was more than 100 µM throughout. Also, the TGI in test [7], in test [8] and in [9] was more than 100 µM throughout.
With `COC(=O)CNC(=O)CNC(=O)CSc1nnc(COc2ccc(Cl)cc2)n1-c1ccccc1`, the TGI in test [1] is more than 100 µM; in [2], more than 100 µM; in [3] it was 49.5 µM; in test [4], more than 100 µM; in [5], 51.6 µM; in [6] it was 56.3 µM. The TGI was 31.8 µM in [7], more than 100 µM in test [8] and more than 100 µM in [9].
For `COc1ccc(OC)c(N=Cc2cc(OC)c(OC)c(OC)c2)c1`, the TGI in [1] is more than 100 µM; in test [2], more than 100 µM; in test [3], more than 78 µM; in [4] it was more than 100 µM; in test [5] it was more than 100 µM; in [6], more than 100 µM. The TGI was 57.7 µM in test [7], more than 100 µM in test [8] and more than 100 µM in test [9].
Regarding `CC(NC(=O)C(N)CC(=O)O)C(=O)OC12CC3CC(CC(C3)C1)C2` (stereo unspecified), the TGI in test [1], in [2], in [3], in test [4], in test [5] and in test [6] was more than 100 µM each time. Further, the TGI in [7], in [8] and in test [9] was more than 100 µM each time.
Take `Cc1n[nH]c(=O)n1Nc1ccccc1`: the TGI in test [1], in test [2], in test [3], in test [4], in test [5] and in [6] was more than 100 µM in each case. For the same molecule, the TGI in test [7], in test [8] and in test [9] was more than 100 µM in each case.
As to `O=C(O)CCNc1ncc2c(n1)-c1ccccc1OC2`, the TGI in test [1], in test [2], in test [3], in test [4], in test [5] and in test [6] was more than 100 µM throughout. For the same molecule, the TGI in test [7], in test [8] and in test [9] was more than 100 µM in each case.
